{"source": "patent US6696407B1", "about": "“Huntington's disease treatment comprising administering aldose reductase inhibitors to increase striatal CNTF” (The Regents of the University of California, priority 1997, dated 2004)", "format_in_all_cases": "in vivo, rat", "key": {"aldose reductase": {"tested_on": "aldose reductase", "assay": "Sciatic nerve polyol content by gas chromatography", "method": "(§1) These studies were conducted with the approval of the San Diego Veterans Administration Animal Studies Subcommittee. Female Sprague-Dawley rats (240-300 g; Charles River, San Diego, Calif.) were housed in cages with wire bottoms to reduce contact with urine and feces. Groups were established and fed either a 40% D-galactose diet or a control diet specially formulated by Purina that contained 40% solka floc, a nonnutritive fiber, to balance nutritional intake. All diets contained 100% of the micronutrients required by rats and, with water, were available ad libitum. Each of these diet groups contained animals that were treated with the ARI, Ponalrestat (50 mg/kg), daily by oral gavage. After two months, rats were anesthetized by intraperitoneal injection (1 ml/kg ip) of pentobarbital sodium (12.5 mg/ml) and diazepam (1.25 mg/ml) in bacteriostatic saline. Under deep anesthesia, motor nerve conduction velocity (MNCV) was measured in the left hindlimb prior to removal of the sciatic nerve. The proximal portion was processed for subsequent light microscopic examination and the distal portion used for gas chromatographic analysis of nerve polyols. The contralateral sciatic nerve was removed and used for assay of CNTF-like neurotrophic activity and either Northern blot or ELISA analysis of CNTF mRNA or protein, respectively.\n(§2) For determination of water content and dry weight, distal segments of sciatic nerve were lightly blotted, weighed prior to freeze-drying and reweighed. Nerve polyols were measured by gas chromatography with α-methylmannoside as an internal standard (Mizisin et al., (1993) J. Neurol. Sci. 116:67-72) using a Hewlett Packard 5890 gas chromatograph (Hewlett Packard, Avondale, Pa.) fitted with a flame ionization detector and a 25 m×0.2 mm capillary column (Hewlett Packard Ultra 1). Nerve water and polyol contents are expressed as mg and nmol per mg nerve dry weight, respectively.\nData are presented as mean ±SD (N=8 to 10) and were analyzed with a one way ANOVA after which multiple comparisons were made with the Student-Newman-Keuls test. Mean dulcitol levels were compared with an unpaired, two-tailed t test. Control and animals received a diet containing 0% D-galactose and galactose animals a diet containing 40% D-galactose for two months."}, "CNTF [1]": {"tested_on": "CNTF", "assay": "CNTF-like bioactivity of sciatic nerve homogenates (24 hour survival of E8CG neurons)", "method": "as §1\nBioassays were performed on extracts of sciatic nerve as described previously by Calcutt et al. (1992) Brain Res. 575:320-324. Briefly, 4 mm segments were homogenized in cold Hank's balanced salt solution, centrifuged and the soluble supernatant aspirated. An aliquot of the supernatant was used to determine the amount of protein using the Bradford assay. The remaining supernatant was used to assay CNTF-like activity by the ability to support the 24 hour survival of day eight embryonic chick ciliary ganglia (E8CG) neurons. E8CG neurons were obtained from chick ciliary ganglia after trypsin treatment and trituration in Dulbecco's Modified Eagle's Medium plus 10% fetal calf serum (DMEM+10% FCS). After seeding onto a tissue culture dish for 2.5 hours to allow attachment of nonneuronal cells, unattached neurons were collected, counted and added to 96-well microtiter plates (500 neurons/well) precoated with polyornithine and laminin. Nerve homogenates were serially diluted in DMEM+10% FCS, added to the microtiter plates and incubated for 24 hours. A dose-response curve using rat recombinant CNTF was used as a standard and to establish the maximum CNTF effect for each assay. […] Cells were then fixed and the number of surviving, intact, blue-staining cells counted using phase contrast microscopy. […]"}, "CNTF [2]": {"tested_on": "CNTF", "assay": "Sciatic nerve CNTF protein by ELISA", "conditions": "P<0.05", "method": "as §1, with “The proximal portion was processed for subsequent light microscopic examination and the distal portion used for gas chromatographic analysis of nerve polyols. The contralateral sciatic nerve was removed and used for assay of CNTF-like neurotrophic activity and either Northern blot or ELISA analysis of CNTF mRNA or protein, respectively.” left out\nCNTF protein was determined with an ELISA that utilizes a monoclonal capture antibody which recognizes a non-C-terminal epitope on both rat and human CNTF (Regeneron, Tarrytown, N.Y.). […] The reaction was stopped with 0.5 N H2SO4 and the plates read at two wavelengths (490 nm and 650 nm)."}, "CNTF mRNA": {"tested_on": "CNTF mRNA", "assay": "Sciatic nerve CNTF mRNA by Northern blot", "conditions": "control and galactose-fed rats", "method": "These studies were conducted with the approval of the San Diego Veterans Administration Animal Studies Subcommittee. Female Sprague-Dawley rats (240-300 g; Charles River, San Diego, Calif.) were housed in cages with wire bottoms to reduce contact with urine and feces. Groups were established and fed either a 40% D-galactose diet or a control diet specially formulated by Purina that contained 40% solka floc, a nonnutritive fiber, to balance nutritional intake. All diets contained 100% of the micronutrients required by rats and, with water, were available ad libitum. Each of these diet groups contained animals that were treated with the ARI, Ponalrestat (50 mg/kg), daily by oral gavage. […] Under deep anesthesia, motor nerve conduction velocity (MNCV) was measured in the left hindlimb prior to removal of the sciatic nerve. […]\nCNTF mRNA levels in sciatic nerve were obtained by first homogenizing 1 cm segments of nerve on ice for 30 seconds in 4 M guanidine thiocyanate containing 0.1 M β-mercaptoethanol, 25 mM sodium citrate and 0.5% sarcosyl (pH 7.0). […] Autoradiographic bands were quantified using an Ultrascan XL laser densitometer (LKB, Uppsala, Sweden). Ratios of CNTF:GAPDH were determined using optical densities in the linear range for both probes."}, "[3]": {"assay": "Sciatic nerve water content", "conditions": "for Water: sciatic nerve, Ponalrestat 50 mg/kg daily oral, two months", "method": "These studies were conducted with the approval of the San Diego Veterans Administration Animal Studies Subcommittee. Female Sprague-Dawley rats (240-300 g; Charles River, San Diego, Calif.) were housed in cages with wire bottoms to reduce contact with urine and feces. Groups were established and fed either a 40% D-galactose diet or a control diet specially formulated by Purina that contained 40% solka floc, a nonnutritive fiber, to balance nutritional intake. All diets contained 100% of the micronutrients required by rats and, with water, were available ad libitum. Each of these diet groups contained animals that were treated with the ARI, Ponalrestat (50 mg/kg), daily by oral gavage. After two months, rats were anesthetized by intraperitoneal injection (1 ml/kg ip) of pentobarbital sodium (12.5 mg/ml) and diazepam (1.25 mg/ml) in bacteriostatic saline. Under deep anesthesia, motor nerve conduction velocity (MNCV) was measured in the left hindlimb prior to removal of the sciatic nerve. […]\nas §2\nThe effect of two months of galactose feeding and ARI treatment on body weight, nerve water and polyol content, and MNCV is shown in Table 1. Data are presented as mean ±SD (N=8 to 10) and were analyzed with a one way ANOVA after which multiple comparisons were made with the Student-Newman-Keuls test. […] ARI-treated animals received a daily oral gavage (50 mg/kg) of Ponalrestat (ND—Not detected)."}, "[4]": {"conditions": "sciatic nerve, 40% D-galactose diet rats, Ponalrestat 50 mg/kg daily oral, two months"}}, "note": "Marks after values point to notes of the source that are not given here."}
{"smiles": "O=C(O)Cc1nn(Cc2ccc(Br)cc2F)c(=O)c2ccccc12", "note": "[Ponalrestat, 3-(4-bromo-2-fluorobenzyl)-4-oxo-3H-phthalazin-1-ylacetic acid]", "values": [{"measurement": "Dulcitol accumulation (in words)", "setting": "aldose reductase; galactose-fed rats", "value": "attenuated"}, {"measurement": "Nerve myo-inositol content (in words)", "setting": "aldose reductase; galactose-fed rats", "value": "restored"}, {"measurement": "Dulcitol", "setting": "aldose reductase; [4]", "value": "12.2 ± 3.8", "unit": "nmol/mg dry wt"}, {"measurement": "myo-Inositol", "setting": "aldose reductase; [4]", "value": "9.4 ± 1.9^a nmol/mg dry wt"}, {"measurement": "myo-Inositol", "setting": "aldose reductase; sciatic nerve, control diet rats, Ponalrestat 50 mg/kg daily oral, two months", "value": "12.3 ± 1.5^b nmol/mg dry wt"}, {"measurement": "Increase of CNTF associated activity compared to normal rats that did not receive any ARI", "setting": "CNTF [1]; normal rats, survival of embryonic chick ciliary ganglia neurons", "value": "two and one-half fold increase"}, {"measurement": "Increase of CNTF-like bioactivity (TU/ml) compared to untreated control animals", "setting": "CNTF [1]; sciatic nerve, control diet rats, 50 mg/kg daily oral, two months", "value": "~250", "unit": "%"}, {"measurement": "CNTF-like bioactivity relative to control levels", "setting": "CNTF [1]; sciatic nerve, galactose-fed rats with ARI", "value": "not restored to control levels"}, {"measurement": "Increase of CNTF-like bioactivity (TU/ml) compared to the untreated galactose group", "setting": "CNTF [1]; sciatic nerve, galactose-fed rats, 50 mg/kg daily oral, two months, P<0.05", "value": 60, "unit": "%"}, {"measurement": "Increase of CNTF detected by ELISA relative to untreated control rats", "setting": "CNTF [2]; control animals", "value": 50, "unit": "%"}, {"measurement": "Increase of CNTF detected by ELISA relative to untreated control rats", "setting": "CNTF [2]; galactose-fed animals", "value": 50, "unit": "%"}, {"measurement": "Level of CNTF message, CNTF:GAPDH ratios", "setting": "CNTF mRNA", "value": "no marked effect"}, {"measurement": "Nerve water content (in words)", "setting": "[3]; galactose-fed rats", "value": "restored"}, {"measurement": "Water", "setting": "[3]; 40% D-galactose diet rats", "value": "1.8 ± 0.3^a mg/mg dry wt"}, {"measurement": "Water", "setting": "[3]; control diet rats", "value": "1.8 ± 0.1^a mg/mg dry wt"}]}
